Like-named read-outs stand apart in the source and are kept apart here.
Key:
[1] = Diffusion of 32P-ribozyme across a liposome membrane (liposome-associated radioactivity); format: in vitro ADME
Source text: The ribozyme was a 36 mer containing five 2'-O-methyl riboses at the 5' end and the 3' end. The ratio of permeability enhancer molecules per mole of phosphate was about 20:1.

HeLa cells = experiment: Diffusion of 32P-ribozyme into HeLa cells (cell associated radioactivity); format: cell-based; details: 20 molecules enhancer per mole of ribozyme phosphate; pH about 4, diluted in DMEM without serum; 1 hour at 37° C., 5% CO2
Protocol: This example illustrates the ability of an enhancer to facilitate the diffusion of a ribozyme into HeLa cells. […] The sample was diluted up to 1 ml with DMEM media containing no serum and added to HeLa cells. A control was run containing ^32 P-ribozyme without enhancer. Cells were incubated for 1 hour at 37° C. in 5% CO2. The cells were washed 3 times with serum free media and solubilized with 0.5 ml of 1% triton.

[2] = not told
Protocol: Specifically, twenty μg of ^32 P radiolabeled ribozyme (1.68×10^-9 moles) was incubated with 1.2×10^-6 moles of permeability enhancer in 50 μl of water to give a pH of about 4. Incubation was carried out at 25° C. for 15 minutes. After the incubation, 1×10^-11 moles of dioleoylphosphatidylcholine liposomes was added to the 50 μl solution. The solution was diluted to 100 μl with 20 mM HEPES (pH 7.4) and centrifuged in a microfuge for 5 minutes to pellet the liposomes. The supernatant was removed and the lipid pellets were washed with 100 μl of 20 mM HEPES (pH 7.4). The lipid pellets were solubilized in 1% Triton X-100 and the amount of radioactivity associated with the lipid pellets was measured. The amount of associated radioactivity reflects the amount of diffusion across the liposome membrane.
A titration of the permeability enhancer to ribozyme was performed by holding the amount of ribozyme constant and increasing the molar charge ratio of the permeability enhancer (aminocaprylic acid) to ribozyme. The experiment was carried out as described above using different amounts of enhancer.

[3] = ratio of permeability enhancer per mole of phosphate about 20:1, pH about 4, 25° C., 15 minutes, 32P ribozyme (36 mer)

SMILES	% Liposome Associated [1]	% Liposome Associated [1, 3]	further results
O=C(O)/C=C/c1c[nH]cn1 [Urocanic Acid]	0.95%	–	–
Nc1cccc(C(=O)O)c1 [m-Aminobenzoic Acid]	2.54%	–	–
NCCCC(=O)O [Aminobutyric Acid]	0.53%	–	–
NCCCCCC(=O)O [Aminocaproic Acid]	–	0.70%	–
NCC(=O)O [glycine]	–	0.55%	–
NCCCCCCCC(=O)O [Aminocaprylic Acid]	–	9.54%	degree of membrane association (in words) ([1]; ribozyme, enhancer to phosphate about 20:1): highest degree of membrane association; amount of cell associated radioactivity, enhancer:ribozyme versus ribozyme alone (HeLa cells): 3 fold; membrane association on increasing the ratio of enhancer to ribozyme (in words) [2]: concomitant increase in membrane association

Source: patent US5583020A, “Permeability enhancers for negatively charged polynucleotides” (Ribozyme Pharmaceuticals, Inc., priority 1993, dated 1996)
